Common to all, as to format: in vivo
Series [1] relates to western flower thrips (Frankliniella occidentalis). Kind of series: Insecticidal activity against western flower thrips. As to conditions: Frankliniella occidentalis, 48 h; 500 ppm chemical solution sprinkled (2.5 mg/cm^2), larvae on common bean leaf, after 2 days; read-out: death rate. Here is the method: Wet filter paper was laid on each styrol cup having an inner diameter of 7 cm, and a common bean leaf cut into a 3 cm square was placed thereon, and inoculated with 20 western flower thrips (Frankliniella occidentalis) larvae. A 10% by mass emulsion of the presently invented compound prepared according to the above formulation example for an emulsion was diluted with water containing a spreader to prepare a chemical solution having a concentration of 500 ppm. For each styrol cup, 2.5 ml of the chemical solution prepared was sprinkled (2.5 mg/cm^2) with a rotary tower sprinkler. […] The test was carried out in duplicate.

For series [2], the system named is cat fleas (Ctenocephalides felis). The experiment in a line: whole plant or invertebrate. As to conditions: 72 h, read-out: death rate. As to the method:
In 1 ml of acetone, 1 mg of the presently invented compound was dissolved to prepare a chemical solution having a concentration of 1000 ppm. The bottom surface and side surface of each glass container having an inner wall surface area of 25 cm^2 were coated with 250 µl of the chemical solution, and acetone was then volatilized to form a thin film of the compound on the inner wall of the glass container.
Into each of the treated glass containers, five cat fleas (Ctenocephalides felis) imagoes (mixed-sex) were released, and the glass containers were capped and accommodated in a thermostatic room at 25°C. Three days after the release, the number of dead flea individuals were examined, and the death rate was calculated from the same calculation formula as in Test Example 1.

Series [3] deals with diamondback moths (Plutella xylostella). Kind of series: Insecticidal test for diamondback moths. The following applies: Plutella xylostella, 144 h; 500 ppm chemical solution, leaves soaked, third-instar larvae, six days, 25°C; read-out: death rate. Here is the method: A 10% by mass emulsion of the presently invented compound prepared according to the above formulation example for an emulsion was diluted with water containing a spreader to prepare a chemical solution having a concentration of 500 ppm. Chinese olive leaves were soaked in the chemical solution for approximately 10 seconds. After the completion of the soaking operation, the Chinese olive leaves treated with the chemical solution were air-dried, and then put in dishes. Into each dish, five third-instar diamondback moths (Plutella xylostella) larvae were released, and the dishes were capped and accommodated in a thermostatic room at 25°C. […] The test was carried out in duplicate.

Series [4] deals with brown rice planthoppers (Nilaparvata lugens). Kind of series: Insecticidal test for brown rice planthoppers. As to conditions: 500 ppm chemical solution, rice leaf sheaths soaked, third-instar larvae, six days, 25°C; for mortality at 500 µg/mL: Nilaparvata lugens, 144 h, read-out: death rate; for death rate: 8640 min. As to the method: A 10% by mass emulsion of the presently invented compound prepared according to the above formulation example for an emulsion was diluted with water containing a spreader to prepare a chemical solution having a concentration of 500 ppm. Rice leaf sheaths were soaked in the chemical solution for approximately 10 seconds. After the completion of the soaking operation, the rice leaf sheaths treated with the chemical solution were air-dried, and then put in test tubes. Into each test tube, five third-instar brown rice planthoppers (Nilaparvata lugens) larvae were released, and the test tubes were capped with sponge and accommodated in a thermostatic room at 25°C. Six days after the accommodation, the number of dead brown rice planthoppers individuals in the test tubes were examined, and the death rate was calculated from a calculation formula shown below. The test was carried out in duplicate. [formula]

Structures are written as SMILES. Some results are limits rather than exact numbers.

Take `O=C(Nc1ccc(F)cc1)C1=C(O)CC(c2ccc(C(F)(F)F)c(-c3cncc(F)c3)c2)NC1=O` (centres unmarked) [1-002]: the mortality at 500 µg/mL in series [1], in series [3] and in series [4] was at least 90% throughout. Moreover, the mortality at 10 µg/cm2 in series [2] is at least 50%.

As to `O=C(Nc1ccc(F)nc1)C1=C(O)CC(c2cnc(Cl)c(-c3ccc(F)nc3)c2)NC1=O` (centres unmarked) [2-008], the mortality at 500 µg/mL in series [1], in series [3] and in series [4] was at least 90% each time. Further, in series [2], the mortality at 10 µg/cm2 is at least 50%.

Consider `O=C(Nc1ccc(F)cn1)C1=C(O)CC(c2cnc(Cl)c(-c3ccc(F)nc3)c2)NC1=O` (centres unmarked) [2-009], for which the mortality at 500 µg/mL in series [1], in series [3] and in series [4] was at least 90% throughout. For the same molecule, in series [2], the mortality at 10 µg/cm2 is at least 50%.

Regarding `O=C(Nc1cnc(Cl)cn1)C1=C(O)CC(c2cnc(Cl)c(-c3ccc(F)nc3)c2)NC1=O` (centres unmarked) [2-011], the mortality at 500 µg/mL in series [1], in series [3] and in series [4] was at least 90% each time. Further, the mortality at 10 µg/cm2 in series [2] is at least 50%.

`O=C(Nc1ccc(C(F)(F)F)nc1)C1=C(O)CC(c2cnc(Cl)c(-c3ccc(F)nc3)c2)NC1=O` (centres unmarked) [2-012]: the mortality at 500 µg/mL in series [1], in series [3] and in series [4] was at least 90% in each case. For the same molecule, the mortality at 10 µg/cm2 in series [2] is at least 50%.

For `N#Cc1ccc(NC(=O)C2=C(O)CC(c3cnc(Cl)c(-c4ccc(F)nc4)c3)NC2=O)cn1` (centres unmarked) [2-013], the mortality at 500 µg/mL in series [1], in series [3] and in series [4] was at least 90% each time. In addition, in series [2], the mortality at 10 µg/cm2 was at least 50%.

As for `C[S+]([O-])c1ccc(NC(=O)C2=C(O)CC(c3cnc(Cl)c(-c4ccc(Cl)nc4)c3)NC2=O)cc1` (centres unmarked) [2-043], the death rate in series [4] is at least 90%.

Consider `O=C(Nc1ncc(C(F)(F)F)cn1)C1=C(O)CC(c2cnc(Cl)c(-c3cncc(F)c3)c2)NC1=O` (centres unmarked) [2-051], for which the death rate in series [4] is at least 90%.

Regarding `O=C(Nc1ccc(Cl)nn1)C1=C(O)CC(c2cnc(Cl)c(-c3cncc(F)c3)c2)NC1=O` (centres unmarked) [2-052], the death rate in series [4] is at least 90%.

On to `N#Cc1ccc(NC(=O)C2=C(O)CC(c3cnc(Cl)c(-c4cncc(F)c4)c3)NC2=O)cc1` (centres unmarked) [2-071], for which the mortality at 500 µg/mL in series [1] and in series [4] was at least 90% throughout. Moreover, in series [2], the mortality at 10 µg/cm2 was at least 50%.

In the case of `O=C(Nc1ccc(F)cc1)C1=C(O)CC(c2cnc(Cl)c(-c3ccccc3)c2)NC1=O` (centres unmarked) [2-089], the mortality at 500 µg/mL in series [1], in series [3] and in series [4] was at least 90% throughout. Besides, the mortality at 10 µg/cm2 in series [2] was at least 50%.

As for `N#Cc1ccc(NC(=O)C2=C(O)CC(c3cnc(Cl)c(-c4ccccc4)c3)NC2=O)cc1` (centres unmarked) [2-090], the mortality at 500 µg/mL in series [1], in series [3] and in series [4] was at least 90% each time. In addition, the mortality at 10 µg/cm2 in series [2] was at least 50%.

Consider `O=C(Nc1ccc(Cl)nc1)C1=C(O)CC(c2cnc(Cl)c(-c3ccccc3)c2)NC1=O` (centres unmarked) [2-092], for which the mortality at 500 µg/mL in series [1], in series [3] and in series [4] was at least 90% throughout. Moreover, in series [2], the mortality at 10 µg/cm2 is at least 50%.

On to `N#Cc1ccc(NC(=O)C2=C(O)CC(c3cnc(Cl)c(-c4ccccc4)c3)NC2=O)cn1` (centres unmarked) [2-093], for which the mortality at 500 µg/mL in series [1], in series [3] and in series [4] was at least 90% each time. The mortality at 10 µg/cm2 in series [2] was at least 50%.

As for `N#Cc1ccc(NC(=O)C2=C(O)CC(c3cnc(Cl)c(-c4ccccc4)c3)NC2=O)nc1` (centres unmarked) [2-094], the mortality at 500 µg/mL in series [1], in series [3] and in series [4] was at least 90% in each case. The mortality at 10 µg/cm2 in series [2] is at least 50%.

On to `O=C(Nc1cnc(Cl)cn1)C1=C(O)CC(c2cnc(Cl)c(-c3ccccc3)c2)NC1=O` (centres unmarked) [2-095], for which the mortality at 500 µg/mL in series [1], in series [3] and in series [4] was at least 90% in each case. The mortality at 10 µg/cm2 in series [2] was at least 50%.

Turning to `O=C(Nc1ccccn1)C1=C(O)CC(c2cnc(Cl)c(-c3ccc(F)nc3)c2)NC1=O` (centres unmarked) [2-096], the mortality at 500 µg/mL in series [1], in series [3] and in series [4] was at least 90% throughout. Also, the mortality at 10 µg/cm2 in series [2] was at least 50%.

In the case of `O=C(Nc1ccncn1)C1=C(O)CC(c2cnc(Cl)c(-c3ccc(F)nc3)c2)NC1=O` (centres unmarked) [2-101], the mortality at 500 µg/mL in series [1], in series [3] and in series [4] was at least 90% each time. Also, the mortality at 10 µg/cm2 in series [2] is at least 50%.

With `O=C(Nc1ncccn1)C1=C(O)CC(c2cnc(Cl)c(-c3cnccc3F)c2)NC1=O` (centres unmarked) [2-134], the mortality at 500 µg/mL in series [1], in series [3] and in series [4] was at least 90% each time. In addition, in series [2], the mortality at 10 µg/cm2 is at least 50%.

As for `O=C(Nc1nccs1)C1=C(O)CC(c2cnc(Cl)c(-c3cnccc3F)c2)NC1=O` (centres unmarked) [2-135], the mortality at 500 µg/mL in series [1], in series [3] and in series [4] was at least 90% each time. For the same molecule, in series [2], the mortality at 10 µg/cm2 is at least 50%.

With `O=C(Nc1ccc(F)cn1)C1=C(O)CC(c2cnc(Cl)c(-c3cnccc3F)c2)NC1=O` (centres unmarked) [2-136], the mortality at 500 µg/mL in series [1], in series [3] and in series [4] was at least 90% each time. Besides, the mortality at 10 µg/cm2 in series [2] is at least 50%.

Take `O=C(Nc1cc(Br)cc(F)n1)C1=C(O)CC(c2cnc(Cl)c(-c3cnccc3F)c2)NC1=O` (centres unmarked) [2-138]: the mortality at 500 µg/mL in series [1], in series [3] and in series [4] was at least 90% in each case. The mortality at 10 µg/cm2 in series [2] is at least 50%.

Consider `O=C(Nc1ncccn1)C1=C(O)CC(c2cnc(Cl)c(-c3ccc(F)cc3)c2)NC1=O` (centres unmarked) [2-238], for which the mortality at 500 µg/mL in series [1] and in series [4] was at least 90% throughout. For the same molecule, the mortality at 10 µg/cm2 in series [2] was at least 50%.

Consider `O=C(Nc1ccc(F)cc1)C1=C(O)CC(c2nc(-c3ccc(Cl)cc3)no2)NC1=O` (centres unmarked) [3-003], for which the mortality at 500 µg/mL in series [1] and in series [3] was at least 90% in each case. In addition, in series [2], the mortality at 10 µg/cm2 is at least 50%.

On to `O=C(Nc1cc(F)ccn1)C1=C(O)CC(c2nc(-c3ccccn3)no2)NC1=O` (centres unmarked) [3-045], for which the mortality at 500 µg/mL in series [1] and in series [4] was at least 90% each time. The mortality at 10 µg/cm2 in series [2] was at least 50%.

In the case of `Cc1ccoc1-c1noc(C2CC(O)=C(C(=O)Nc3ccc(F)cn3)C(=O)N2)n1` (centres unmarked) [3-094], the death rate in series [4] is at least 90%.

In turn, `Cc1cncc(-c2noc(C3CC(O)=C(C(=O)Nc4ccc(F)cn4)C(=O)N3)n2)c1` (centres unmarked) [3-130] came in with a death rate in series [4] of at least 90%.

For the molecule `O=C(Nc1cc(F)ccn1)C1=C(O)CC(c2nc(-c3ccc(Cl)c(F)c3)no2)NC1=O` (centres unmarked) [3-145], the mortality at 500 µg/mL in series [1] and in series [3] was at least 90% each time. In series [2], the mortality at 10 µg/cm2 was at least 50%.

For `Cc1ccnc(NC(=O)C2=C(O)CC(c3nc(-c4ccccn4)no3)NC2=O)c1` (centres unmarked) [3-152], in series [4], the mortality at 500 µg/mL is at least 90%.

The molecule `Cc1ccnc(-c2noc(C3CC(O)=C(C(=O)Nc4ccc(F)cn4)C(=O)N3)n2)c1` (centres unmarked) [3-153] displayed a death rate in series [4] of at least 90%.

For the molecule `Cc1ccc(NC(=O)C2=C(O)CC(c3nc(-c4ccsc4)no3)NC2=O)nc1` (centres unmarked) [3-168], in series [4], the death rate is at least 90%.

As to `O=C(Nc1ncccc1F)C1=C(O)CC(c2nc(-c3cnccc3F)no2)NC1=O` (centres unmarked) [3-237], in series [2], the mortality at 10 µg/cm2 was at least 50%. Further, the mortality at 500 µg/mL in series [3] and in series [4] was at least 90% throughout.

For the molecule `O=C(Nc1cnccn1)C1=C(O)CC(c2nc(-c3ccc(F)cn3)no2)NC1=O` (centres unmarked) [3-261], the mortality at 500 µg/mL in series [1] and in series [4] was at least 90% in each case.

With `Cc1csc(NC(=O)C2=C(O)CC(c3nc(-c4ccc(F)nc4)no3)NC2=O)n1` (centres unmarked) [3-290], the death rate in series [4] is listed as at least 90%.

For the origin of these results see patent publication EP4582413A1, “ARYLTETRAHYDROPYRIDINE COMPOUND AND PEST CONTROL AGENT” (priority 2022, dated 2024).
